This note sets out measurements from article PMC10774164, “Hydrolysis of ionic liquid–treated substrate with an Iocasia fonsfrigidae strain SP3-1 endoglucanase” (Applied Microbiology and Biotechnology, 2024).

The experiment has as its system T1, IfCelS12A.
T1 construct: tag removal not described
In words: hydrolysis kinetics, Lineweaver-Burk plot. Format: biochemical, Iocasia fonsfrigidae. The following applies: 50 mM Tris-HCl pH 7.0, 50 °C, 10 min, 0.5 μM enzyme. The text has this:
hydrolysis kinetics, Lineweaver-Burk plot on IfCelS12A
In general, Km refers to the substrate concentration at which the rate is half of its maximum. Turning to `OC[C@H]1O[C@@H](O[C@H]2[C@H](O)[C@@H](O)[C@H](O[C@H]3[C@H](O)[C@@H](O)[C@H](O[C@H]4[C@H](O)[C@@H](O)C(O)O[C@@H]4CO)O[C@@H]3CO)O[C@@H]2CO)[C@H](O)[C@@H](O)[C@@H]1O` (stereo partly drawn) [G4, Cellotetraose], the Km was 250 µM.
Take `OC[C@H]1O[C@@H](O[C@H]2[C@H](O)[C@@H](O)[C@H](O[C@H]3[C@H](O)[C@@H](O)[C@H](O[C@H]4[C@H](O)[C@@H](O)[C@H](O[C@H]5[C@H](O)[C@@H](O)C(O)O[C@@H]5CO)O[C@@H]4CO)O[C@@H]3CO)O[C@@H]2CO)[C@H](O)[C@@H](O)[C@@H]1O` (stereo partly drawn) [G5, Cellopentaose]: the Km was found to be 270 µM.
For `OC[C@H]1O[C@@H](O[C@H]2[C@H](O)[C@@H](O)[C@H](O[C@H]3[C@H](O)[C@@H](O)[C@H](O[C@H]4[C@H](O)[C@@H](O)[C@H](O[C@H]5[C@H](O)[C@@H](O)[C@H](O[C@H]6[C@H](O)[C@@H](O)C(O)O[C@@H]6CO)O[C@@H]5CO)O[C@@H]4CO)O[C@@H]3CO)O[C@@H]2CO)[C@H](O)[C@@H](O)[C@@H]1O` (stereo partly drawn) [G6, Cellohexaose] the value was 390 µM.
